According to US20200009253A1, “Compositions and Methods for Treatment of Infections” (Thompson Cooper Laboratories, LLC, priority 2011, published 2020):

What was measured:
[1] = Whitening effect of the nail after brushing the composition onto the nail surface (shows peroxide penetration); type: in vivo, human
Text: (§1) Lower levels of hydrogen peroxide in the present invention can be used to treat infected skin or mucous membranes such as canker sores. Depending on the concentration of peroxide, penetration through a nail will also elicit sensations in certain subjects ranging from tingling to burning, which may be mildly painful at higher concentrations. Embodiments of the invention comprising an optional local anesthetic may be appropriate when using such higher concentrations. Effectiveness may be measured by a reduction of, or complete eradication of, the nail fungus over the course of treatment, and further evidenced by healthy nail growth. On a weight basis, 9% hydrogen peroxide, 21% water, 69.5% isopropyl alcohol, and 0.5% Klucel HF (a thickening agent, a hydroxypropylcellulose polymer), were mixed in a vessel and allowed to thicken. (The source of the peroxide was a 30% peroxide solution.) The composition could easily be brushed onto a nail surface, which dried in approximately 1 minute, and the residual polymer could subsequently be removed by washing in water. […] On a weight basis, 6% hydrogen peroxide, 6% water, 87.5% isopropyl alcohol, and 0.5% Klucel HF, were mixed in a vessel and allowed to thicken. […] The resulting composition differed from that of Example 2a in that there was no isopropyl alcohol or any other highly volatile solvent, the quantity thereof being replaced with water. […]

[2] = Sensation (tingling, burning, pain) under the nail after application; type: in vivo, human; conditions: 3% in a solvent system containing a highly volatile solvent; after 15-30 minutes
Text: as §1

[3] = Solubility of carbamide peroxide in alcohols; type: physicochemical; conditions: solid carbamide peroxide
Description: On a weight basis, 18.5% carbamide peroxide, 3.0% glycerol, 73.1% ethyl alcohol, 4.5% luviskol VA 64-polyvinylpyrrolidone vinyl alcohol, and 0.9% Klucel HF, were mixed in a vessel and allowed to thicken. The source of peroxide was solid carbamide peroxide, which is only soluble in isopropyl alcohol to about 10% and in ethanol to about 20%, therefore luviskol VA 64-polyvinylpyrrolidone vinyl alcohol is added to supersaturate the carbamide peroxide, and glycerol is added to retain the carbamide peroxide in solution following ethanol evaporation.

Row | solubility in ethanol [3] | solubility in isopropyl alcohol [3] | Compound | visual effect on normal finger nail ([1]; 3% aqueous concentration, thin film via a brush) | visual effect on nail ([1]; same amount and 3% concentration in a solvent system containing a highly volatile solvent) | sensation after application [2]
1 |  |  | OO [hydrogen peroxide, Hydrogen peroxide] | no visual effect | signs of whiteness | a slight tingling sensation may sometimes be felt
2 | about 20% | about 10% | NC(N)=O.OO [carbamide peroxide] |  |  | 
